Measured values taken from EP1633374B1, “COMPOSITION CONSISTING OF ALKANE DICARBOXYLIC ACIDS AND A PHARMACEUTICALLY ACTIVE INGREDIENT” (Intendis GmbH, priority 2003, dated 2004).
Entries after “also recorded” stand apart in the source; their conditions may differ.

System: durch Crotonöl entzündete Maushaut
Assay: Croton oil-induced inflammation of the mouse ear (irritant contact dermatitis model), leukocyte infiltration of the skin
Type: in vivo, Maus
Settings: for Inhibition [%] der Hautinfiltration * von Granulozyten & Monozyten (Myelo-Peroxidaseaktivität) / Inhibition [%] der Hautinfiltration * von Neutrophilen Elastaseaktivität: Crotonöl challenge, mouse ear skin, topical treatment in Ethanol/Isopropylmyristat, inhibition vs Crotonöl + Vehikel (0 %), 100 % = Vehikel/Vehikel, significance given (n.s. or p<0.05); for therapeutische Effekte im Vergleich zum Vehikel: inflammation model, in Ethanol/Isopropylmyristat, Peroxidase- and Elastase-Aktivität in der Haut, result in words
Description: Die Induktion einer entzündlichen Reaktion (irritative Kontaktdermatitis) ist ein weit verbreitetes Modell zur pharmakologischen Evaluierung des anti - inflammatorischen Potentials von topisch oder systemisch applizierten Testsubstanzen. (Trancik and Lowe (1985) Evaluation of topical nonsteroidal anti - inflammatory agents, Models in Dermatology, H. Maibach and N.J. Lowe, Basel Karger: 35 - 42) Es hat sich unter anderem bei der Testung von nicht - steroidalen Antiphlogistika sowie bei Glukokortikosteroiden bewährt und gilt als der am besten reproduzierbare in vivo Testversuch für die Evaluierung topischer anti - inflammatorischer Substanzen (Lorenzetti (1975) Animal to Clinical Correlation of Topical Anti - Inflammatory Efficacy, Animal models in dermatology. H. Maibach, Basel Karger: 212 - 224)
Die Induktion einer entzündlichen Reaktion (irritative Kontaktdermatitis) ist ein weit verbreitetes Modell zur pharmakologischen Evaluierung des anti - inflammatorischen Potentials von topisch oder systemisch applizierten Testsubstanzen (Trancik and Lowe (1985) Evaluation of topical nonsteroidal anti - inflammatory agents, Models in Dermatology, H. Maibach and N.J. Lowe. Basel, Karger: 35 - 42). Es hat sich u.a. bei der Testung von nicht - steroidalen Antiphlogistika sowie bei Glukokortikosteroiden bewährt und gilt als der am besten reproduzierbare in vivo Versuch für die Evaluierung topischer anti - inflammatorischer Substanzen (Lorenzetti (1975) Animal to Clinical correlation of Topical Anti - inflammatory Efficacy. Animal models in dermatology. H. Maibach. Basel Karger: 212 - 225).
Die Applikation des Phorbolesters Crotonöl auf Mäuseohren führt zu einer akuten, entzündlichen Reaktion mit Ödem und Einwanderung von vorwiegend polymorphkernigen Granulozyten, die binnen 24h ihr Maximum erreicht. Testsubstanzen können hierbei entweder präventiv (d.h. vor Applikation des entzündlichen Reizes) oder simultan mit Crotonöl appliziert werden. Die Crotonöl - induzierte Entzündung am Mäuseohr ist nicht nur ein Modell der irritativen und/oder allergischen Kontaktdermatitis, sondern auch anderer Hauterkrankungen, die mit einer starken Entzündung und Einwanderung von Granulozyten verbunden sind. Hierzu zählen die Psoriasis, atopische Dermatitis, Akne vulgaris und das entzündliche Stadium der Rosacea.
Erstaunlicher Weise wurde gefunden, dass eine Kombinationstherapie von Metronidazol (0.75%) und Azelainsäure (20%) in Ethanol/Isopropylmyristat im Vergleich zum Vehikel signifikant therapeutisch effektiv waren, wohingegen die beiden Einzelsubstanzen Metronidazol (0.75%) bzw. […] Die Wirksamkeit beinhaltete u.a. die Einwanderung von Leukozyten gemessen als Peroxidase-Aktivität in der Haut sowie die Einwanderung von neutrophilen Granulozyten gemessen als Elastase-Aktivität in der Haut (Tabelle 1).
Die Leukozyteninfiltration in die durch Crotonöl entzündete Maushaut wird durch die kombinierte Behandlung mit Azelainsäure und Metronidazol im Vergleich zu Vehikelbehandlung signifikant inhibiert, wohingegen die einzelnen Wirkstoffe nicht so effektiv waren.

Row | SMILES | Inhibition [%] der Hautinfiltration * von Granulozyten & Monozyten (Myelo-Peroxidaseaktivität) | Inhibition [%] der Hautinfiltration * von Neutrophilen Elastaseaktivität | therapeutische Effekte im Vergleich zum Vehikel
1 | O=C(O)CCCCCCCC(=O)O [Azelainsäure (20%), Azelainsäure] | 21 (n.s.) * % | 11 (n.s.) * % | keine so hohen, therapeutischen Effekte; also recorded: keine so hohe, therapeutische Effekte
2 | C[C@H]1C[C@@H]2[C@H]([C@@H](O)C[C@@]3(C)[C@H]2CC[C@]3(O)C(=O)CO)[C@@]2(C)C=CC(=O)C=C12 [Methylprednisolon] | 90 (p<0.05) ^* % | 95 (p<0.05) ^* % | –
3 | Cc1ncc([N+](=O)[O-])n1CCO [Metronidazol (0.75%), 1-(2-hydroxyethyl)-2-methyl-5-nitroimidazol] | 9 (n.s.) * % | 18 (n.s.) * % | keine so hohen, therapeutischen Effekte; also recorded: keine so hohe, therapeutische Effekte
